This is an account of results in patent US9480674B2, “Method and composition for treating acne” (THESAN PHARMACEUTICALS, INC., priority 2012, dated 2016).

The structures appear in SMILES notation. Entries after “also recorded” stand apart in the source; their conditions may differ. Where two headings read alike, the source gives them in different places.

The subject of series [1] is CYP1A1 expression in sebaceous glands. In words: Focal expression of AhR activation (CYP1A1 immunohistochemistry) in sebaceous gland cell types of topically treated mouse ears. An excerpt: The embodiment described here entails treating the ears of C57BL/6 mice via the topical route, following established protocols to determine dose-response and time-response relationships, with sebum reducing AhR pathway agonists previously characterized for their in vivo activation of the receptor, using, for example the EROD and CALUX methods which are widely used in this field (see Table 1).
Following topical treatment, the ears are sampled, and CYP1A1 expression is examined by immunohistochemical analysis using a specific antibody.
The study diagrammed in FIG. 1 and for which photomicrographs are provided in FIG. 2 entailed treating mice daily for one week with a topical AhR pathway agonist, with ears taken for examination at Day 7. Ears were recovered and fixed in formalin, paraffin embedded and then sections were prepared and positioned on slides for immunohistochemical staining. The specific antibody used in this instance was rabbit anti-rat CYP1A1 polyclonal antibody (Millipore AB1247). The AhR pathway agonists used in the example in FIG. 2 were as follows: • 1B) 6-formylindolo[3,2-b]carbozole (NSA4/FICZ); • 2B) 8,13-Dihydroindolo[2′,3′:3,4]pyrido[2,1-b]quinazolin-5(7H)-one (NSA1/rutecarpine); • 3B) 3-phenyl-1H-benzo[f]chromen-1-one (NSA2); • 4B)_2,3,7,8-tetrachlorodibenzo-p-dioxin (NSA3/TCDD).
In addition to the particular topography of the isthmus region, these cells are characterized by the expression of L-RIG1, a marker of isthmic multi-potent clonogenic cells (Jensen et al. (2009),).

For series [2], the system named is sebum. Description: Sebosuppressive activity on human skin (sebumetric casual level, sebutape, clinical observation). The format is in vivo, man. Conditions: for Sebosuppressive activity in man (reduction in sebum): NSA-1, NSA-2, NSA-8, NSA-9 tested at 0.5%. The method, then: The sebum inhibition index is calculated by counting the number of mature and differentiated cells in relation to the total number of cells in the sebaceous glands. A decrease in mature and differentiated cells indicates blocking of sebogenesis. The effect on human skin is determined by sebumetric examination using what is known as the “casual level” (Dobrev (2007)).

The conditions of series [3]: in rodents; Adedoyin et al. (1993); cited from earlier work.
The target in series [4] is T1, AhR (CYP1A1 induction) (Homo sapiens, UniProt P35869).
T1 construct: endogenous in cells
T1 sequence (P35869 11-848): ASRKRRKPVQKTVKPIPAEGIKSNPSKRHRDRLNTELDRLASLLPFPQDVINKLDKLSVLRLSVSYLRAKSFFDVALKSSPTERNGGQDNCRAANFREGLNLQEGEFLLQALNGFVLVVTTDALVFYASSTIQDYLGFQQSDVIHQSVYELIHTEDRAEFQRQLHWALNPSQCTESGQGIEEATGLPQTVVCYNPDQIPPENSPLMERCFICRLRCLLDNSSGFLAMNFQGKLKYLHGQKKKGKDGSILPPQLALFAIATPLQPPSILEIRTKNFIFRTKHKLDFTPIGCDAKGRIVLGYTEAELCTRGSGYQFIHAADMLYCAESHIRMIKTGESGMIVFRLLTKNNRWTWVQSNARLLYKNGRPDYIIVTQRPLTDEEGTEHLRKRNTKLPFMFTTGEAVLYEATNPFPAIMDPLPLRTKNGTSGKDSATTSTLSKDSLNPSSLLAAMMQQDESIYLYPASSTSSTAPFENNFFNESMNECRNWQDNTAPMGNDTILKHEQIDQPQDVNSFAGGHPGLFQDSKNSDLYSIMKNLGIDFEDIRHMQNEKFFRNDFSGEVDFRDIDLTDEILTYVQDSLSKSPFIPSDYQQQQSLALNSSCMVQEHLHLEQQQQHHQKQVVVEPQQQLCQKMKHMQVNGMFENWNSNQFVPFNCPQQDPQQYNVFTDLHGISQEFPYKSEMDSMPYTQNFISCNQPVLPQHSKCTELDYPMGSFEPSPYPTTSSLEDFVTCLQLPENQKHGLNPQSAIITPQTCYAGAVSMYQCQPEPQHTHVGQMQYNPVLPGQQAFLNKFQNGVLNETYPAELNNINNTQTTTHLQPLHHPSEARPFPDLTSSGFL
In words: EROD (ethoxyresorufin-O-deethylase) assay, CYP1A1 induction as reporter of AhR activation in vitro. The format is cell-based. The settings on record: at 10 μM. An excerpt:
As used herein, the term EROD refers to the ethoxyreorufin-O-deethylase (EROD) assay which monitors the induction of the xenobiotic-metabolizing enzyme cytochrome P-450 1A1(CYP1A1) and is a widely used as a reporter for measuring activation of the AhR in vitro (Zamaratskaia et al. (2009), Behnisch et al. (2001),)

The subject of series [5] is sebaceous glands. In words: Dose effect in mice: sebosuppressive effect and tolerability of topical treatment of the ears. The format is in vivo. The method, then: For these dose-effects tests, C57BL/6 mice were treated for three to five weeks, five days per week on the ears and in three concentrations, namely 0.1, 0.5, and 1% of NSA-2. The sebosuppressive effect was analyzed at the third week although expression thereof starts after one week.
Drug tolerability, in the absence of MADISH-type cyst production, was assessed after five weeks' treatment.

A short description of series [6]: Blood assay by HPLC in topically treated mice. The format is in vivo, C57BL/6 mice. Conditions: 5 nM sensitivity.
The test system of series [7] is FADS2, AWAT1, ELOVL3 mRNA. Description: Real-Time QRT-PCR of mRNA of sebogenic enzymes in ears of mice treated for five weeks. The settings on record: mouse ears, 0.5% in acetone (TCDD 0.0005%), vs vehicle. The format is in vivo, C57BL/6 mice. An excerpt:
At the end of that time the animals were sacrificed and the ears removed for further analysis.

For series [8] the following is noted: in vivo; cited from earlier work.

Turning to `O=c1c2ccccc2nc2n1CCc1c-2[nH]c2ccccc12` [NSA 1, 8,13-Dihydroindolo[2′,3′:3,4]pyrido[2,1-b]quinazolin-5(7H)-one], the “Activation of the AhR pathway (CYP1A1 staining) in the sebaceous cell sub-populations, stage reached” value (“Activation of the AhR pathway” below) in series [1] (mouse, in vivo) was “activates the AhR pathway in two of the cell sub-populations in mice”. In series [2], the “Sebosuppressive activity in man (reduction in sebum)” value is recorded as “potentially useful sebosuppressive activity in man when tested at the same concentrations (0.5%), although weaker than that of NSA-2”.

Regarding `O=c1cc(-c2ccccc2)oc2ccc3ccccc3c12` [NSA 2, 3-phenyl-1H-benzo[f]chromen-1-one], the half-life result in series [3] is reported as “less than 45 mins”. In series [4], the “AhR activation in the standard EROD assay, % of the level of induction seen with 0.01 μM TCDD” value is 10-20%. Moreover, the “Activation of the AhR pathway” value in series [1] (mouse, in vivo) is “activate the AhR pathway in the four cell sub-populations within a period of less than one week”. For the same compound, the “Sebosuppressive activity in man (reduction in sebum)” value in series [2] was “strongest sebosuppressive activity in man; also recorded: active in reducing sebum”. The “Sebosuppressive effect in mice (active sebaceous glands, gland surface, ratios of sebocytes; FIGS. 5-8)” value in series [5] (0.1, 0.5 and 1%, ears, five days per week, analyzed at the third week) was “very marked effects; also recorded: a reduction in the differentiated compartment of the gland was observed”. Moreover, in series [5] (after five weeks' treatment, any concentration tested), the MADISH-type cystic lesions result is on record as “No cystic lesion were observed”. Besides, the Tolerability in mice result in series [5] (mouse, in vivo) was “good tolerability”. In addition, in series [6], the “Blood level by HPLC” value is on record as under 5 nM. For the same compound, the “Inhibition of mRNA expression encoding the three sebogenic enzymes (FADS2, AWAT1, ELOVL3)” value (shortened to “Inhibition”) in series [7] was “major inhibition”.

On to `Clc1cc2c(cc1Cl)Oc1cc(Cl)c(Cl)cc1O2` [NSA 3, 2,3,7,8-tetrachlorodibenzo-p-dioxin], for which, in series [8], the half-life entry is “measureable in years”. The “Activation of the AhR pathway” value in series [1] (mice, topical, first week of treatment) is “activate the AhR pathway in the four cell sub-populations within a period of less than one week”. In series [2], the “Sebosuppressive activity in man (reduction in sebum)” value was “strongest sebosuppressive activity in man”. Further, the “Inhibition” value in series [7] was “degree of specific gene suppression seen with NSA-2 is equivalent to that seen with the structurally unrelated compound NSA-3”.

For `O=Cc1c2c(cc3c1=Nc1ccccc1-3)=Nc1ccccc1-2` [NSA 4, 6-formylindolo[3,2-b]carbazole], the “Activation of the AhR pathway” value in series [1] (mouse, in vivo) was “limited distribution in the sebaceous glands when compared with NSA-2”.

With `COc1ccc2nc([S@@+]([O-])Cc3ncc(C)c(OC)c3C)[nH]c2c1` [NSA 7, (S)-5-methoxy-2-[(4-methoxy-3,5-dimethylpyridin-2-yl)methylsulfinyl]-3H-benzoimidazole], the “Activation of the AhR pathway” value in series [1] (mouse, in vivo) was “only activates the AhR receptor pathways in Stage One of the cell sub-populations”. In series [2] (tested at 8%), the “Sebosuppressive activity in man” value is given as “no sebosuppressive activity in man”.

Turning to `O=c1cc(-c2ccccc2)oc2c1ccc1ccccc12` [NSA-8, 2-phenyl-4H-benzo[h]chromen-4-one], the “Sebosuppressive activity in man (reduction in sebum)” value in series [2] was “neither 2-phenyl-4H-benzo[h]chromen-4-one nor 2-phenyl-4H-chromen-4-one exhibited any reduction in sebum”. Further, the “Inhibition” value in series [7] is “slightly stimulating effect”.

Regarding `O=c1cc(-c2ccccc2)oc2ccccc12` [NSA-9, 2-phenyl-4H-chromen-4-one], the “Sebosuppressive activity in man (reduction in sebum)” value in series [2] is “neither 2-phenyl-4H-benzo[h]chromen-4-one nor 2-phenyl-4H-chromen-4-one exhibited any reduction in sebum”. Further, the “Inhibition” value in series [7] was “no significant effect”.
